Values of other authors as cited in patent US20080286344A1, “Solid form” (priority 2007, published 2008).

## Cn1c(=O)c2[nH]cnc2n(C)c1=O [theophylline]
1 g active in stated g of water
  Solubility in water, g of water for 1 g: 100-1000 g water
water
  Solubility in water (descriptive term): slightly soluble
